From ChEMBL document CHEMBL4602655, “Synthesis and biological evaluation of Isosteviol derivatives as FXa inhibitors” (Bioorg Med Chem Lett, 2020)

Experiments:
Coagulation factor X [1] = molecular target: T1, Coagulation factor X (Homo sapiens, UniProt P00742); experiment: Inhibition of factor 10a (unknown origin)
Coagulation factor X [2] = molecular target: T1, Coagulation factor X; experiment: Binding affinity to factor 10a (unknown origin) assessed as association rate constant by SPR assay
Coagulation factor X [3] = molecular target: T1, Coagulation factor X; experiment: Binding affinity to factor 10a (unknown origin) assessed as dissociation rate constant by SPR assay
Coagulation factor X [4] = molecular target: T1, Coagulation factor X; experiment: Binding affinity to factor 10a (unknown origin) by SPR assay
Plasma = experiment: Anticoagulant activity in plasma assessed as concentration required to double the activated partial thromboplastin time; assay type: ADME, cell-free

T1 sequence (P00742 41-179 limits assumed): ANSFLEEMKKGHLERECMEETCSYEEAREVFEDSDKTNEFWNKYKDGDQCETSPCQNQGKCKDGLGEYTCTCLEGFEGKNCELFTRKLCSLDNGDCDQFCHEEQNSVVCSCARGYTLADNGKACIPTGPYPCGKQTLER
T1 sequence (P00742 235-488 limits assumed): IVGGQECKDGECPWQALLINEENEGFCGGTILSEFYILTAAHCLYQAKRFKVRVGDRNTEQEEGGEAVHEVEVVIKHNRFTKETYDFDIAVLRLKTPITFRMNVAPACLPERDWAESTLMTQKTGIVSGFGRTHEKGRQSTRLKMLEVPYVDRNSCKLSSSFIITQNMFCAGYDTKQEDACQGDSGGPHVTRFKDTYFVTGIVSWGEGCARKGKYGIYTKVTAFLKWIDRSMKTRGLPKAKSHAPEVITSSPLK

Row | SMILES | IC50 (Coagulation factor X [1]) | other results
1 | CCOC(=O)[C@]1(C)CCC[C@@]2(C)[C@@H]3CC[C@@]4(C)C[C@]3(CC[C@@H]21)C/C4=N\NC(=S)Nc1ccc(C#N)cc1 | 13.6 µM | 
2 | CCOC(=O)[C@]1(C)CCC[C@@]2(C)[C@@H]3CC[C@@]4(C)C[C@]3(CC[C@@H]21)C[C@H]4OCc1cn(-c2cccc(Cl)c2)nn1 | 17.7 µM | 
3 | CCOC(=O)[C@]1(C)CCC[C@@]2(C)[C@@H]3CC[C@@]4(C)C[C@]3(CC[C@@H]21)C/C4=N\NC(=S)Nc1ccc(Br)cc1 | 8.77 µM | 
4 | CCOC(=O)[C@]1(C)CCC[C@@]2(C)[C@@H]3CC[C@@]4(C)C[C@]3(CC[C@@H]21)C/C4=N\NC(=S)Nc1ccc(C(C)C)cc1 | 54.9 µM | 
5 | CCOC(=O)[C@]1(C)CCC[C@@]2(C)[C@@H]3CC[C@@]4(C)C[C@]3(CC[C@@H]21)C[C@H]4OCc1cn(Cc2ccccc2)nn1 | 29.4 µM | 
6 | CCOC(=O)[C@]1(C)CCC[C@@]2(C)[C@@H]3CC[C@@]4(C)C[C@]3(CC[C@@H]21)C[C@H]4OCc1cn(-c2ccccc2)nn1 | 10.4 µM | 
7 | CCOC(=O)[C@]1(C)CCC[C@@]2(C)[C@@H]3CC[C@@]4(C)C[C@]3(CC[C@@H]21)C[C@H]4OCc1cn(-c2cccc(C)c2)nn1 | 41.7 µM | 
8 | CCOC(=O)[C@]1(C)CCC[C@@]2(C)[C@@H]3CC[C@@]4(C)C[C@]3(CC[C@@H]21)C/C4=N\NC(=S)Nc1ccc(C(F)(F)F)cc1 | 8.66 µM | 
9 | CCOC(=O)[C@]1(C)CCC[C@@]2(C)[C@@H]3CC[C@@]4(C)C[C@]3(CC[C@@H]21)C[C@H]4OCc1cn(-c2ccc(OC)cc2)nn1 | 19.3 µM | 
10 | CCOC(=O)[C@]1(C)CCC[C@@]2(C)[C@@H]3CC[C@@]4(C)C[C@]3(CC[C@@H]21)C/C4=N\NC(=S)Nc1ccccc1 | 13.4 µM | 
11 | CCOC(=O)[C@]1(C)CCC[C@@]2(C)[C@@H]3CC[C@@]4(C)C[C@]3(CC[C@@H]21)C/C4=N\NC(=S)Nc1ccc(Cl)cc1 | 0.153 µM | Ka (Coagulation factor X [2]): 1.93 ×10⁴ /M/s; Kd (Coagulation factor X [3]): 1.45 ×10⁻¹ /s; Kd (Coagulation factor X [4]): 7.52 µM; 2aPTT (Plasma): 9.31 µM
12 | CCOC(=O)[C@]1(C)CCC[C@@]2(C)[C@@H]3CC[C@@]4(C)C[C@]3(CC[C@@H]21)C/C4=N\NC(=S)Nc1cccc(Cl)c1Cl | 7.73 µM | 
13 | CCOC(=O)[C@]1(C)CCC[C@@]2(C)[C@@H]3CC[C@@]4(C)C[C@]3(CC[C@@H]21)C/C4=N\NC(=S)Nc1cccc2ccccc12 | 0.955 µM | 
14 | CCOC(=O)[C@]1(C)CCC[C@@]2(C)[C@@H]3CC[C@@]4(C)C[C@]3(CC[C@@H]21)C/C4=N\NC(=S)Nc1cccc(Cl)c1 | 0.196 µM | Ka (Coagulation factor X [2]): 1.84 ×10⁴ /M/s; Kd (Coagulation factor X [3]): 1.56 ×10⁻¹ /s; Kd (Coagulation factor X [4]): 8.44 µM; 2aPTT (Plasma): 17.12 µM
15 | CCOC(=O)[C@]1(C)CCC[C@@]2(C)[C@@H]3CC[C@@]4(C)C[C@]3(CC[C@@H]21)C/C4=N\NC(=S)Nc1ccccc1Cl | 0.209 µM | Ka (Coagulation factor X [2]): 1.88 ×10⁴ /M/s; Kd (Coagulation factor X [3]): 1.87 ×10⁻¹ /s; Kd (Coagulation factor X [4]): 9.98 µM
16 | CCOC(=O)[C@]1(C)CCC[C@@]2(C)[C@@H]3CC[C@@]4(C)C[C@]3(CC[C@@H]21)C[C@H]4OCc1cn(-c2ccc(C(C)C)cc2)nn1 | 20.3 µM | 
17 | CCOC(=O)[C@]1(C)CCC[C@@]2(C)[C@@H]3CC[C@@]4(C)C[C@]3(CC[C@@H]21)C[C@H]4OCc1cn(-c2ccc(C)cc2)nn1 | 5.53 µM | 

More lines, in order of falling IC50 (Coagulation factor X [1]), values ahead:

Row | IC50 (Coagulation factor X [1]) | SMILES | other results
18 | 57.7 µM | CCOC(=O)[C@]1(C)CCC[C@@]2(C)[C@@H]3CC[C@@]4(C)C[C@]3(CC[C@@H]21)C/C4=N\NC(=S)Nc1ccc(C)cc1 | 
19 | 34.5 µM | CCOC(=O)[C@]1(C)CCC[C@@]2(C)[C@@H]3CC[C@@]4(C)C[C@]3(CC[C@@H]21)C[C@H]4OCc1cn(-c2ccccc2C)nn1 | 
20 | 33.6 µM | CCOC(=O)[C@]1(C)CCC[C@@]2(C)[C@@H]3CC[C@@]4(C)C[C@]3(CC[C@@H]21)C/C4=N\NC(=S)Nc1ccc(OC)cc1OC | 
21 | 32.4 µM | C#CCO[C@@H]1C[C@]23CC[C@H]4[C@@](C)(CCC[C@@]4(C)C(=O)OCC)[C@@H]2CC[C@@]1(C)C3 | 
22 | 29.6 µM | CCOC(=O)[C@]1(C)CCC[C@@]2(C)[C@@H]3CC[C@@]4(C)C[C@]3(CC[C@@H]21)C/C4=N\NC(=S)Nc1cccc(N(C)C)c1 | 
23 | 27.5 µM | CCOC(=O)[C@]1(C)CCC[C@@]2(C)[C@@H]3CC[C@@]4(C)C[C@]3(CC[C@@H]21)C/C4=N\NC(=S)Nc1ccc(F)cc1 | 
24 | 27.3 µM | CCOC(=O)[C@]1(C)CCC[C@@]2(C)[C@@H]3CC[C@@]4(C)C[C@]3(CC[C@@H]21)C[C@H]4OCc1cn(-c2ccc(Cl)cc2)nn1 | 
25 | 18.4 µM | CCOC(=O)[C@]1(C)CCC[C@@]2(C)[C@@H]3CC[C@@]4(C)C[C@]3(CC[C@@H]21)C/C4=N\NC(=S)Nc1cccc(OC)c1 | 
26 | 12.7 µM | CCOC(=O)[C@]1(C)CCC[C@@]2(C)[C@@H]3CC[C@@]4(C)C[C@]3(CC[C@@H]21)C[C@H]4O | 
27 | 9.03 µM | CCOC(=O)[C@]1(C)CCC[C@@]2(C)[C@@H]3CC[C@@]4(C)C[C@]3(CC[C@@H]21)C/C4=N\NC(=S)Nc1ccc(C(C)(C)C)cc1 | 
28 | 8.74 µM | CCOC(=O)[C@]1(C)CCC[C@@]2(C)[C@@H]3CC[C@@]4(C)C[C@]3(CC[C@@H]21)C[C@H]4OCc1cn(-c2ccc(F)cc2)nn1 | 
29 | 8.46 µM | CCOC(=O)[C@]1(C)CCC[C@@]2(C)[C@@H]3CC[C@@]4(C)C[C@]3(CC[C@@H]21)C/C4=N\NC(=S)Nc1ccc([N+](=O)[O-])cc1 | 
30 | 7.57 µM | CCOC(=O)[C@]1(C)CCC[C@@]2(C)[C@@H]3CC[C@@]4(C)C[C@]3(CC[C@@H]21)C[C@H]4OCc1cn(-c2ccc3c(c2)OCO3)nn1 | 
31 | 6.65 µM | CCOC(=O)[C@]1(C)CCC[C@@]2(C)[C@@H]3CC[C@@]4(C)C[C@]3(CC[C@@H]21)C/C4=N\NC(=S)Nc1ccc(OC)cc1 | 
32 | 6.33 µM | CCOC(=O)[C@]1(C)CCC[C@@]2(C)[C@@H]3CC[C@@]4(C)C[C@]3(CC[C@@H]21)C[C@H]4OCc1cn(-c2cc(C)cc(C)c2)nn1 | 
33 | 4.87 µM | CCOC(=O)[C@]1(C)CCC[C@@]2(C)[C@@H]3CC[C@@]4(C)C[C@]3(CC[C@@H]21)C[C@H]4OCc1cn(-c2cccc3ccccc23)nn1 | 
34 | 4.15 µM | CCOC(=O)[C@]1(C)CCC[C@@]2(C)[C@@H]3CC[C@@]4(C)C[C@]3(CC[C@@H]21)C/C4=N\NC(=S)Nc1ccccc1C | 
35 | 3.76 µM | CCOC(=O)[C@]1(C)CCC[C@@]2(C)[C@@H]3CC[C@@]4(C)C[C@]3(CC[C@@H]21)C/C4=N\NC(=S)Nc1cccc(C)c1 | 
36 | 3.34 µM | CCOC(=O)[C@]1(C)CCC[C@@]2(C)[C@@H]3CC[C@@]4(C)C[C@]3(CC[C@@H]21)C[C@H]4OCc1cn(-c2ccc(Br)cc2)nn1 | 
37 | 2.82 µM | CCOC(=O)[C@]1(C)CCC[C@@]2(C)[C@@H]3CC[C@@]4(C)C[C@]3(CC[C@@H]21)C/C4=N\N | 
38 | 0.786 µM | CCOC(=O)[C@]1(C)CCC[C@@]2(C)[C@@H]3CC[C@@]4(C)C[C@]3(CC[C@@H]21)CC4=O | 
39 | 0.642 µM | C[C@@]12CC[C@@H]3[C@@](CC[C@H]4[C@@]3(C)CCC[C@@]4(C)C(=O)O)(CC1=O)C2 [ISOSTEVIOL] | 
